Source: patent US20140227289A1, “COMPOUNDS AND METHODS FOR TREATING INSULIN RESISTANCE SYNDROME” (priority 2011, published 2014)

How the values were obtained:
human AGS cells = assay: Quantitative RT-PCR of FOXO target mRNAs in human AGS cells under ER stress; type: cell-based
Method: (§1) The expression of certain mRNAs was measured by quantitative reverse transcription polymerase chain reaction (RT-PCR). In this example, the mRNA was extracted and purified using RNeasy Mini Kit (Qiagen, Netherlands) with DNase to eliminate genomic DNA contamination. Reverse transcription to synthesize the first strand utilized oligo-dT primers. The mRNAs measured are known FOXO targets: […] (CHOP), Bim (anti- or pro-apoptotic regulators), Growth Arrest and DNA Damage gene (GADD45) and PERK. Bip2, which is not a FOXO target, was also measured as a control. Results were normalized to Kinesin mRNA.
Dimethyl sulfoxide (DMSO)-treated human AGS cells were used as a control, denoted as “ctrl”. The human AGS cells were grown in Roswell Park Memorial Institute (RPMI) media supplemented with 10% FBS, and treated with 10 μg/ml tunicamycin dissolved in DMSO at 1 mg/ml for 4 hours to induce ER stress. The tunicamycin treated cells are denoted as “TM”.
Quantitative RT-PCR was performed to show the relative level of the indicated human mRNA targets. The results are shown in FIG. 5A where normalized levels of mRNA transcripts were measured for the “TM” cells compared to the “ctrl” cells. […] It can be concluded that ER stress induces the expression of Bip2, CHOP, Bim and GADD45.
(§2) The tunicamycin treated (“TM”) cells were further treated with siRNA treatment to deplete PERK from human AGS cells. The siRNA sequence used was 5′-[…]-3′ (SEQ ID NO: 1). The siRNA was transfected into cells using HiPerFect reagent (Qiagen, Netherlands) for 3 days before tunicamycin treatment. The PERK-depleted cells are denoted as “PERK RNAi+TM”.
(§3) Quantitative RT-PCR was performed to show the relative level of the indicated human mRNA targets. The results are shown in FIG. 5B where normalized levels of the target mRNA transcripts were measured for the “TM” cells compared with the “PERK RNAi+TM” cells. The levels of these target mRNAs in PERK-depleted (“PERK RNAi+TM”) cells were normalized to the levels of tunicamycin-treated (“TM”) control cells.

PERK = assay: siRNA depletion of PERK in human AGS cells, quantitative RT-PCR; type: cell-based; details: siRNA transfected 3 days before tunicamycin treatment
Method: as §1, §2, §3

human Foxo1 (human) = human Foxo1 (human) (UniProt Q12778); assay: cell-based or functional assay
human Foxo1 = assay: Foxo1 luciferase reporter assay in human H1299 cells; type: cell-based; details: 1 μM
Method: Human H1299 cells were transfected to express human Foxo1 (“FOXO1”) and co-transfected to express PERK (“FOXO1+PERK”). The transfected H1299 cells were treated with 1 μM PERK kinase inhibitor (“FOXO1+inhibitor” and “FOXO1+PERK+inhibitor”). The PERK kinase inhibitor has the chemical formula: 5-Bromo-N4-2-pyridinyl-N2-[3-(1,2,3,6-tetrahydro-4-pyridinyl)-1H-indol-5-yl]-2,4-pyrimidinediamine. The activity of the Foxo1 luciferase reporter gene was then measured in terms of normalized IRS-luciferase levels.

HEPG2 hepatocyte cells = assay: Expression of FOXO targets in serum starved, PI3K inhibited HEPG2 hepatocyte cells; type: cell-based, human; details: serum starved+LY+PERK inhibition vs serum starved+LY
Method: To test the effects of PERK inhibition on endogenous Foxo1 targets, the cells were serum starved to remove growth factors and treated with the PI3K inhibitor LY294002 (50 μM) to further reduce AKT activity (“serum starved+LY”) for 4 hours. This treatment can be viewed as a model for extreme insulin resistance, in that it removes the capacity of the cell to respond insulin signaling by activating AKT. Control cells were grown in DMEM supplemented with 10% FBS (“control with serum”). The endogenous human FOXO targets are BIM gene (a pro-apoptotic member of the BCL-2 protein family), Cyclin G2 gene (encoding a cyclin that blocks cell cycle entry), insulin receptor substrate 2 gene (IRS-2; encoding a cytoplasmic signaling molecule that mediates effects of insulin), p27KIP1 gene (encoding a cell cycle regulatory protein), pyruvate dehydrogenase lipoamide kinase isozyme 4 gene (PDK4; encoding a protein that inhibits the pyruvate dehydrogenase complex), phosphoenolpyruvate carboxykinase 2 (PCK2; encoding a mitochondrial enzyme), p21 gene (encoding a cyclin-dependent kinase inhibitor) and insulin receptor gene (INSR). The rp132 gene (a ribosomal protein gene) and the mActin gene (encoding a muscle-specific type actin) are not FOXO targets and were used as controls. […] Example 11A was repeated with HEPG2 hepatocyte cells instead.

HEPG2 liver cells = assay: Foxo1 target gene expression in palmitate treated (insulin resistant) HEPG2 liver cells; type: cell-based, human; details: palmitate treated cells further treated with PERK kinase inhibitor
Method: HEPG2 liver cells were treated with 0.75 mM of palmitate, a saturated fatty acid, for 17 hours to induce insulin resistance, and the effects of PERK inhibition were assessed by monitoring Foxo1 target gene expression. The Foxo1 target genes are pyruvate dehydrogenase lipoamide kinase isozyme 4 gene (PDK4; encoding a protein that inhibits the pyruvate dehydrogenase complex) and phosphoenolpyruvate carboxykinase 1 (PCK1; encoding […]).
The results are shown in FIG. 12A, where the data was normalized to Kinesin mRNA levels and to the level of the rp132 control mRNAs.
The palmitate treated cells were further treated by inhibiting PERK kinase inhibitor 5-Bromo-N4-2-pyridinyl-N2-[3-(1,2,3,6-tetrahydro-4-pyridinyl)-1H-indol-5-yl]-2,4-pyrimidinediamine.
The results are shown in FIG. 12B, where the data was normalized to Kinesin mRNA levels and to the level of the rp132 control mRNAs. It can be seen that PERK inhibition decreased the expression of the Foxo1 targets, PDK4 and PCK1.

MCF-7 cells = assay: Expression of endogenous Foxo1 targets in serum starved, PI3K inhibited MCF-7 cells; type: cell-based, human; details: serum starved+LY+PERK inhibition vs serum starved+LY
Method: To test the effects of PERK inhibition on endogenous Foxo1 targets, the cells were serum starved to remove growth factors and treated with the PI3K inhibitor LY294002 (50 μM) to further reduce AKT activity (“serum starved+LY”) for 4 hours. This treatment can be viewed as a model for extreme insulin resistance, in that it removes the capacity of the cell to respond insulin signaling by activating AKT. Control cells were grown in DMEM supplemented with 10% FBS (“control with serum”). The endogenous human FOXO targets are BIM gene (a pro-apoptotic member of the BCL-2 protein family), Cyclin G2 gene (encoding a cyclin that blocks cell cycle entry), insulin receptor substrate 2 gene (IRS-2; encoding a cytoplasmic signaling molecule that mediates effects of insulin), p27KIP1 gene (encoding a cell cycle regulatory protein), pyruvate dehydrogenase lipoamide kinase isozyme 4 gene (PDK4; encoding a protein that inhibits the pyruvate dehydrogenase complex), phosphoenolpyruvate carboxykinase 2 (PCK2; encoding a mitochondrial enzyme), p21 gene (encoding a cyclin-dependent kinase inhibitor) and insulin receptor gene (INSR). The rp132 gene (a ribosomal protein gene) and the mActin gene (encoding a muscle-specific type actin) are not FOXO targets and were used as controls. […]

FOXO-GFP = FOXO-GFP subcellular localization assay in Drosophila S2 cells; type: cell-based; details: 10 μg/ml of insulin for 30 min, serum free medium
Method: A FOXO-green fluorescent (GFP) fusion protein was expressed in Drosophila S2 cells by transient transfection. The Drosophila cells were grown in serum free medium and deprived of insulin. The transfected cells were treated with 10 μg/ml of insulin for 30 min and the subcellular localization of FOXO-GFP was scored by obtaining images of the FOXO-GFP expressing cells. The insulin treated cells were named sample (b). A control sample (a) was obtained by having no insulin treatment to the transfected cells. In sample (c), ER stress was induced by RNA interference (RNAi) to disrupt endoplasmic-reticulum-associated-protein degradation (ERAD) machinery. The disruption of ERAD machinery was done by treatment of dsRNA to deplete HMG-CoA reductase degradation protein 3 (Hrd3), thereby inducing ER stress. Thereafter, the cells were treated with insulin 4 days after the dsRNA treatment. In sample (d), ER stress was induced by dsRNA treatment to deplete Hrd3. PERK protein was also depleted using dsRNA treatment. Thereafter, the cells were treated with insulin 4 days after the dsRNA treatment.
The results are shown in FIG. 2, where N means predominantly nuclear, C means predominantly cytoplasmic and CN means both nuclear and cytoplasmic. […]

[1] = PERK RNAi+TM cells compared with TM cells

UniProt Q12778, sequence (Q12778 whole entry): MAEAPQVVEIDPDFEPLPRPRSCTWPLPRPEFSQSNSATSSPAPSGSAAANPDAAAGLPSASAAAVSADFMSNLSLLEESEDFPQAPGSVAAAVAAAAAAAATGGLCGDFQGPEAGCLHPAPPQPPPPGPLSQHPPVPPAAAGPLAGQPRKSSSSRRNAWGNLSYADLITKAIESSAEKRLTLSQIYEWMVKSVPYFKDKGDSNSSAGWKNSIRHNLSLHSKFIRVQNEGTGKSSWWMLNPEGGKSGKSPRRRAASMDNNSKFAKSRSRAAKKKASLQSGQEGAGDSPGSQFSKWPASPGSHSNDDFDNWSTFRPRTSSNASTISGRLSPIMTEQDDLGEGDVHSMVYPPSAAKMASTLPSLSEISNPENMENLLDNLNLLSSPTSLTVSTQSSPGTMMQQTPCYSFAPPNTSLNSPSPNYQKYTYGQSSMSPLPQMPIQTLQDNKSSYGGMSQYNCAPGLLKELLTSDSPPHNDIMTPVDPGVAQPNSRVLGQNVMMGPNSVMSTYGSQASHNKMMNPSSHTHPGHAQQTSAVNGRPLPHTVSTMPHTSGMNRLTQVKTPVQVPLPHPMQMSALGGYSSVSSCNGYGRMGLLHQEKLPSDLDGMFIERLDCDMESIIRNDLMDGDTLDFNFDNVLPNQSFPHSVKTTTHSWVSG

In the case of tunicamycin [TM, reference compound], the “levels of Bip2, CHOP, Bim and GADD45 mRNA transcripts compared to ctrl cells” value (human AGS cells; 10 μg/ml tunicamycin for 4 hours, normalized to Kinesin mRNA) is reported as “significantly higher”.
For 5′-CAAACUGUAUAACGGUUUATT-3′ [PERK RNAi], the “degree of induction of Foxo1 targets CHOP, Bim and GADD45” value (human AGS cells; [1]) was “reducing the degree of induction”, the “levels of Bip2 transcripts (not a FOXO target)” value (human AGS cells; [1]) was “comparable” and the “decrease of PERK levels compared to TM cells” value (PERK) was “more than 80%”.
“human protein kinase RNA-like endoplasmic reticulum kinase (PERK) protein (from UniProt Q9NZJ5 30-1116) (enzyme)” gave a normalized luciferase levels of the human Foxo1 luciferase reporter (human Foxo1 (human)) of 2 fold.
For `Brc1cnc(Nc2ccc3[nH]cc(C4=CCNCC4)c3c2)nc1Nc1ccccn1` [PERK kinase inhibitor, 5-Bromo-N4-2-pyridinyl-N2-[3-(1,2,3,6-tetrahydro-4-pyridinyl)-1H-indol-5-yl]-2,4-pyrimidinediamine], the “level of Foxo1 activity with co-expressed PERK (normalized IRS-luciferase levels)” value (human Foxo1; FOXO1+PERK vs FOXO1+PERK+inhibitor) was “reduced the level of Foxo1 activity”, the “activity of Foxo1 alone (normalized IRS-luciferase levels)” value (human Foxo1; FOXO1 vs FOXO1+inhibitor) was “did not affect” and the “expression of rp132 and mActin (not FOXO target genes)” value (HEPG2 hepatocyte cells) was “did not reduce”. The “target genes expression (p27, PDK, Cyclin G, PCK2, p21, INSR)” value (HEPG2 hepatocyte cells) was “reduced the target genes expression”, the “expression of the Foxo1 targets PDK4 and PCK1” value (HEPG2 liver cells) was “decreased” and the “levels of rp123 and mActin (not Foxo1 targets)” value (HEPG2 liver cells) was “not substantially altered”. For the same compound, the “target genes expression (BIM, Cyclin G2, IRS-2, p27KIP1, PDK4)” value (MCF-7 cells) was “reducing the target genes expression”.
In the case of insulin, the “location of FOXO-GFP both nuclear and cytoplasmic” value (FOXO-GFP) is reported as “about 30 % of cells” and the “location of FOXO-GFP cytoplasmic” value (FOXO-GFP) is reported as “about 70 % of cells”.
